Common to all, as to format: cell-based, Saccharomyces cerevisiae
Test [1] deals with RE700A i PPDR5-HXT7 (IT[PDR]). Briefly: Growth inhibition of IT[PDR] by 2-DG. The note with it: 20 h 28° C., maltose; for Inhibition of growth: IT[PDR], in percent of growth of RE700A. How it is done: (B) RE700A, ICFP and IT[PDR] were incubated 20 h at 28° C. with maltose (2% (w/v)) as the sole carbon source and the indicated 2-DG concentrations. The optical density was measured at 600 nm every 15 minutes and the integral under the growth curve is calculated. Inhibition of growth of ICFP and IT[PDR] is shown in percent of growth of RE700A. Growth of ICFP was inhibited by 15% at 0.01% (w/v) 2-DG, by 74% at 0.03% (w/v) 2-DG, by 80% at 0.05% (w/v) 2-DG and by 83% at 0.1% (w/v) 2-DG. Growth of IT[PDR] was inhibited by 21% at 0.01% (w/v) 2-DG, by 79% at 0.03% (w/v) 2-DG, by 88% at 0.05% (w/v) 2-DG and by 96% in 0.1% (w/v) 2-DG.
(A) Growth inhibition of RE700A i PPDR5-HXT7 (IT[PDR]), RE700A Δpdr1 tok1::PPDR5-HXT7, RE700A Δpdr3 tok1::PPDR5-HXT7 and RE700A Δpdr1,pdr3 tok1::PPDR5-HXT7 at increasing 2-DG concentrations. RE700A i PPDR5-HXT7 (IT[PDR]), RE700A Δpdr1 tok1::PPDR5-HXT7, RE700A Δpdr3 tok1::PPDR5-HXT7 and RE700A Δpdr1,pdr3 tok1::PPDR5-HXT7 were incubated 20 h at 28° C. with Maltose (2% (w/v)) as the sole carbon source and 2-DG concentrations as indicated. The optical density was measured at 600 nm every 15 minutes and the integral under the growth curve was calculated. Inhibition of growth caused by 2-DG is shown in percent. The growth of the strain RE700A tok1::PPDR5-HXT7 (IT[PDR]) was inhibited by 50% at 0.02% (w/v) 2-DG. Growth of the strains RE700A Δpdr1 tok1::PPDR5-HXT7 and RE700A Δpdr3 tok1::PPDR5-HXT7 was inhibited by 50% at 0.026% (w/v) 2-DG.
Strain growth: The growth of the strains in liquid medium was determined by measuring the optical density at 600 nm. To obtain growth curves, measurements were performed every 15 min. Alternatively, start and endpoint (after 12-16 h) measurements were carried out.

The test system of test [2] is RE700A e PCDR1-HXT7 (ET[CDR1]). Kind of test: Growth inhibition of ET[CDR1] by 2-DG. The note with it: liquid media, 20 h 28° C., compared to growth in the absence of 2-DG. The protocol:
FIG. 6: Growth inhibition of RE700A, ET[CDR1] and ET[CDR2] in the presence of increasing 2-DG concentrations after 20 h incubation at 28° C. for in liquid medium. RE700A, ET[CDR1] and ET[CDR2] were incubated 20 h at 28° C. with maltose (2% (w/v)) as the sole carbon source in the presence of increasing 2-DG concentrations in liquid medium. The optical density was measured at 600 nm semi-continuously every 15 minutes and the integral under the growth curve was calculated. Inhibition of growth is shown in percent compared to growth in the absence of 2-DG. Growth of ET[CDR1] was inhibited by 92% at a 2-DG concentration in liquid media of 0.05% (w/v), by 94% at a 2-DG concentration in liquid media of 0.075% (w/v), by 93% at a 2-DG concentration in liquid media of 0.1% (w/v) and by 95% at a 2-DG concentration of 0.2% (w/v). Growth of ET[CDR2] was inhibited by 50% at a 2-DG concentration in liquid media of 0.05% (w/v), by 70% at a 2-DG concentration in liquid media of 0.075% (w/v), by 70% at a 2-DG concentration in liquid media of 0.1% (w/v) and by 84% at a 2-DG concentration of 0.2% (w/v).
(1) Episomal screening system for inhibitors of PCDR1: S. cerevisiae strain RE700A was transformed with plasmids pY-PCDR1-HXT7 and pY-PCDR1-GFP yielding strains ET[CDR1] and CQ[CDR1] (for details see Examples 1 and 2, for the complete genotype refer to Table 1). The inhibition of growth of ET[CDR1] by 2-DG was tested. The growth of this strain was inhibited to more than 90% at a 2-DG concentration of 0.05% (w/v) (FIG. 6). To screen for inhibitors of the PCDR1, the test strain ET[CDR1] can be incubated in selective YNB medium with 2% (w/v) maltose as the carbon source and 0.05% (w/v) 2-DG. Under these non-permissive conditions the growth of the test strain ET[CDR1] was inhibited when PCDR1 was active (FIG. 6).

In test [3] the test system is RE700A i PCDR2-HXT7 (IT[CDR2]). Kind of test: Growth inhibition of IT[CDR2] by 2-DG. The note with it: 20 h 28° C., maltose, regarding growth in the absence of 2-DG. The protocol: FIG. 8: Growth inhibition of RE700A and IT[CDR2] by 2-DG. RE700A and IT[CDR2] were incubated for 20 h at 28° C. with maltose (2% (w/v)) as the sole carbon source and increasing 2-DG concentrations as indicated. The optical density was measured at 600 nm every 15 minutes and the integral under the growth curve was calculated. Inhibition of growth is shown in percent regarding growth in the absence of 2-DG. Growth of IT[CDR2] was inhibited by 30% at a 2-DG concentration of 0.1% (w/v), by 79% at a 2-DG concentration of 1% (w/v), by 89% at a 2-DG concentration of 2% (w/v), by 91% at a 2-DG concentration of 3% (w/v).
(4) Integrated screening system for inhibitors of PCDR2: S. cerevisiae strain RE700A was genetically modified as described in Examples 1 and 2 to yield strain IT[CDR2], chromosomally expressing HXT7 under the control of the promoter of CDR2 (PCDR2) (for the complete genotype see Table 1). The inhibition of growth of IT[CDR2] by 2-DG was tested. The growth of this strain was inhibited by 50% at a 2-DG concentration of 1% (w/v) and by 80% at a 2-DG concentration of 2% (w/v) (FIG. 8).

Several values for one entry are separate records, joined by “and”; a condition that tells them apart may be missing. Identical values can stand only once.

In the case of `O=CC[C@@H](O)[C@H](O)[C@H](O)CO` [2-DG, 2-deoxy-glucose], the Inhibition of growth is reported as 21% in test [1] (0.01% (w/v) 2-DG); 79% in test [1] (0.03% (w/v) 2-DG); 88% in test [1] (0.05% (w/v) 2-DG); 96% in test [1] (0.1% (w/v) 2-DG); 94% in test [2] (0.075% (w/v) 2-DG); 93% in test [2] (0.1% (w/v) 2-DG). For the same molecule, the values for the Inhibition of growth in test [2] (0.2% (w/v) 2-DG), in test [3] (0.1% (w/v) 2-DG) and in test [3] (3% (w/v) 2-DG) were 95%, 30% and 91%, respectively. The “2-DG concentration for 50% growth inhibition” value in test [1] (RE700A tok1::PPDR5-HXT7 (IT[PDR]), liquid media) was 0.021 % (w/v) and 0.02 % (w/v).

Source of the values: patent publication US9121026B2 (priority 2004, dated 2015).
